Drawing on ChEMBL document CHEMBL1157123, “First identification of xanthone sulfonamides as potent acyl-CoA:cholesterol acyltransferase (ACAT) inhibitors” (Bioorg Med Chem Lett, 2010), this text covers inhibition for 24 compounds.

The source made the active and inactive calls. The rule behind the calls is not given here.

The test deals with T1, Sterol O-acyltransferase 1 (Homo sapiens) (UniProt P35610).
T1 sequence (whole entry): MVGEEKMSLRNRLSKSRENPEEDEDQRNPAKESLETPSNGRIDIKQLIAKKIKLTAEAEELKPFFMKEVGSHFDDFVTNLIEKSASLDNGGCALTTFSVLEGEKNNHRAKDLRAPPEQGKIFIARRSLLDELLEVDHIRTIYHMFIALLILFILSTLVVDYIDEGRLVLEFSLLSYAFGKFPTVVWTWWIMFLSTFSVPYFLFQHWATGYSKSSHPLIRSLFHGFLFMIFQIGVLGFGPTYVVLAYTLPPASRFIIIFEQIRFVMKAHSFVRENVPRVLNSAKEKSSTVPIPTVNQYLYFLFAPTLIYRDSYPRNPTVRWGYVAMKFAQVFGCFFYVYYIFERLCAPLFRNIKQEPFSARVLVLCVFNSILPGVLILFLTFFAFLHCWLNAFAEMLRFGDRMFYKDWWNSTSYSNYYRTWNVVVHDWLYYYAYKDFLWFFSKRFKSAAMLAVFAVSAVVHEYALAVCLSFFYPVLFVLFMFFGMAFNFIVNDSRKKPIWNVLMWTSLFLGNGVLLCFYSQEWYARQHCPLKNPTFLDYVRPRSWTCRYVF
In words: Inhibition of ACAT at 10 ug/ml.
The term inhibition denotes the change of the read-out against control, counted positive when it falls. For `COc1cc2oc3c(S(=O)(=O)NCc4ccc5ccccc5c4)c(OC)cc(OC)c3c(=O)c2cc1OC`, the inhibition is 25%.
With `COc1ccc(CCCN(C)S(=O)(=O)c2c(OC)cc(OC)c3c(=O)c4cc(OC)c(OC)cc4oc23)cc1OC` the figure was 30.1%.
Regarding `COc1cc2oc3c(S(=O)(=O)NC4CC4)c(OC)cc(OC)c3c(=O)c2cc1OC`, the inhibition entry is “inactive”.
With `COc1cc2oc3c(S(=O)(=O)N4CCC(N(C)C)C4)c(OC)cc(OC)c3c(=O)c2cc1OC` (centres undefined) the figure was 21%; with `COc1cc2oc3c(S(=O)(=O)NOCc4ccccc4)c(OC)cc(OC)c3c(=O)c2cc1OC`, 16.8%; with `COc1cc2oc3c(S(=O)(=O)N4CCCCC4)c(OC)cc(OC)c3c(=O)c2cc1OC`, 10.5%.
Then `COc1cc2oc3c(S(=O)(=O)NCC(C)c4ccccc4)c(OC)cc(OC)c3c(=O)c2cc1OC` (centres undefined), with 10.8%; and `CNS(=O)(=O)c1c(OC)cc(OC)c2c(=O)c3cc(OC)c(OC)cc3oc12`, with “inactive”; and `CCN(CC)C(=O)C1CCCN(S(=O)(=O)c2c(OC)cc(OC)c3c(=O)c4cc(OC)c(OC)cc4oc23)C1` (centres undefined), with 12.6%.
With `COc1cc2oc3c(S(=O)(=O)N4CCN(c5cccc(C)c5)CC4)c(OC)cc(OC)c3c(=O)c2cc1OC` the figure was 64.8%; with `COc1ccc(N2CCN(S(=O)(=O)c3c(OC)cc(OC)c4c(=O)c5cc(OC)c(OC)cc5oc34)CC2)cc1`, 36.9%.
Compound `CCCCCCCCCC[Si](C)(C)CCC(=O)NC(Cc1ccc(C)cc1)c1ccccc1` (centres undefined) displayed an inhibition of 55%.
With `COc1cc2oc3c(S(=O)(=O)N4CCN(c5ccccn5)CC4)c(OC)cc(OC)c3c(=O)c2cc1OC` the figure was 43.6%; with `CCOC(=O)CN(C)S(=O)(=O)c1c(OC)cc(OC)c2c(=O)c3cc(OC)c(OC)cc3oc12`, 16.8%.
With `COc1cc2oc3c(S(=O)(=O)NC(c4ccccc4)c4ccccc4)c(OC)cc(OC)c3c(=O)c2cc1OC` the entry was “inactive”; with `COc1cc2oc3c(S(=O)(=O)NCc4ccc(F)cc4)c(OC)cc(OC)c3c(=O)c2cc1OC`, 10.2%; with `COc1cc2oc3c(S(=O)(=O)N4CCN(C)CC4)c(OC)cc(OC)c3c(=O)c2cc1OC`, 14.5%.
`COc1cc2oc3c(S(=O)(=O)N4C[C@@H](C)O[C@@H](C)C4)c(OC)cc(OC)c3c(=O)c2cc1OC` gave an inhibition of 8.84%.
In turn, `COc1cc2oc3c(S(=O)(=O)NCc4cccc(Cl)c4)c(OC)cc(OC)c3c(=O)c2cc1OC` displayed an inhibition of 15.8%.
Then `CCCNS(=O)(=O)c1c(OC)cc(OC)c2c(=O)c3cc(OC)c(OC)cc3oc12`, with “inactive”.
With `COc1cc2oc3c(S(=O)(=O)N4CC=C(c5ccccc5)CC4)c(OC)cc(OC)c3c(=O)c2cc1OC` the figure was 51.3%; with `CCOC(=O)C1CCCN(S(=O)(=O)c2c(OC)cc(OC)c3c(=O)c4cc(OC)c(OC)cc4oc23)C1` (centres undefined), 7.99%.
Then `COC(=O)CNS(=O)(=O)c1c(OC)cc(OC)c2c(=O)c3cc(OC)c(OC)cc3oc12`, with 5.13%.
As for `COc1cc2oc3c(S(=O)(=O)NCCc4ccc(C)c(C)c4)c(OC)cc(OC)c3c(=O)c2cc1OC`, the inhibition worked out at 11.9%.
